Source: patent publication US6096734A, “Photosensitizers for sensitizing cells” (The Secretary of State for Defence in Her Britannic …, priority 1993, dated 2000)
Read-outs that look alike come from different tables or passages of the source.

Legend:
[1] = Triplet state studies by laser flash photolysis; type: physicochemical; settings: 1% pyridine in toluene, excitation 355 nm; for Triplet Quantum Yield: means of no less than four runs, compounds 8 and 9 run once
Method: (§1) Triplet state studies were carried out using laser flash photolysis. Samples were prepared in a 1% pyridine in toluene solution; by preparing such a solution then it is believed that aggregation of the phthalocyanine cores is avoided. The solution was prepared so that an optical density of 0.2-0.3 at the excitation wavelength was obtained. Samples were irradiated by an excimer pumped dye laser at 355 nm and the transients monitored with the use of a quartz halogen lamp. Triplet quantum yields were calculated using ZnTPP and ZnPc as standards. The triplet quantum yield is the quantum yield of conversion from the excited singlet state to the triplet state.
Compound example 10 is unsubstituted zinc phthalocyanine (ZnPc); this is included in the Table for means of comparison.
The data in Table 2 are means of no less than four independent runs, except for compounds 8 and 9 which were run once.

[2] = Spectroscopic properties of ZnODPc (absorption, fluorescence); type: physicochemical
Method: The fluorescence emission maximum, excited at 703 nm is at 712 nm.
(§2) In this investigation female Balb/c mice 20-22 g bearing a MS-2 fibrosarcoma intramuscularly implanted into the hind right leg were used as an animal model. On the 7th day after transplantation when the tumour diameter was 0.6-0.8 cm and no spontaneous necrosis could be detected, the mice were injected with 1.2 or 2.4 mg/kg ZnODPc incorporated into Cremophor emulsions. The preparation and characterisation of such emulsions has been described by L. Polo et al Cancer Lett. 66: 217-223, 1992. The amount of injected ZnODPc was estimated by diluting a known aliquot of the phthalocyanine-containing emulsion into THF and reading the absorbance at 701 nm (molar absorption coefficient 2.01×10^5 dm^3 mol^-1 cm^-1).

[3] = Singlet oxygen generation (luminescence at 1270 nm); type: physicochemical
Method: as §1
The generation of singlet oxygen by the phthalocyanines was also studied. The method of detection of the singlet oxygen involved measuring the intensity of luminescence at 1270 nm, corresponding to the forbidden transition from the excited singlet back down to the ground state, with a liquid nitrogen cooled germanium detector. Aerated samples were irradiated with the same system as described for the triplet state studies. Standards used were ZnTPP, ZnPc and anthracene.
The data in Table 3 are means of no less than four independent runs, except for compounds 8 and 9 were run once.
The properties of the decomposition products arising from irradiation of the phthalocyanines were investigated.

[4] = test system: MS-2 fibrosarcoma; assay: Phototherapeutic studies: tumour response to PDT (visual observation, electron microscopy); type: in vivo, female Balb/c mice
Method: as §2
The tumour bearing mice were injected with 2.4 mg/kg ZnODPc and after 24 h were irradiated by 600-700 nm light which was isolated from the emission of a quartz-halogen lamp (Teclas, Lugano Switzerland) by optical filtering. The light beam was focussed into a bundle of optical fibres, whose tip was positioned at a 1 cm distance from the tumour surface. The lamp was operated at 230 mW/cm^2 for a total delivered light dose of 400 J/cm^2.
The tumour response was analyzed by visual observation, as well as by electron microscopy studies on tumour specimens taken at 6 h and 24 h after the end of the PDT. The procedure for the preparation of the samples and ultra structural determinations was performed as described by Milanesi et al. Br. J. Cancer 61: 846-850, 1990.
At the same time endocytoplasmic vacuolisation 6 is frequently observed with some completely necrotic cells and loss of the organised tissue structure.

[5] = parameters: species or system female Balb/c mice; settings: mouse, in vivo
Method: In this investigation female Balb/c mice 20-22 g bearing a MS-2 fibrosarcoma intramuscularly implanted into the hind right leg were used as an animal model. On the 7th day after transplantation when the tumour diameter was 0.6-0.8 cm and no spontaneous necrosis could be detected, the mice were injected with 1.2 or 2.4 mg/kg ZnODPc incorporated into Cremophor emulsions. The preparation and characterisation of such emulsions has been described by L. Polo et al Cancer Lett. 66: 217-223, 1992. The amount of injected ZnODPc was estimated by diluting a known aliquot of the phthalocyanine-containing emulsion into THF and reading the absorbance at 701 nm (molar absorption coefficient 2.01×10^5 dm^3 mol^-1 cm^-1). The tumour-bearing mice were injected with 1.2 mg/kg ZnODPc in the tail vein. At 3 hours and 24 hours after administration, groups of three mice were sacrificed by prolonged exposure to ether vapours, the tumour and selected normal tissues (muscle, skin, liver and kidneys) were excised, washed with phosphate buffered saline (PBS) and assayed for the phthalocyanine content by spectrofluorimetric analysis after chemical extraction, see Reddi et al Br. J. Cancer 61: 407-411, 1990; typically a weighted amount of tissue was homogenized in 3 ml of 2% aqueous sodium dodecyl sulphate (SDS); the homegenate was incubated for 1 hour at room temperature under gentle magnetic stirring and 1 ml of the suspension was added with 2 ml of THF, centrifuged at 10 mins at 3000 rpm; the supernatant was collected and its fluorescence intensity was determined in the 670-770 nm interval (excitation at 650 nm). The fluorescence intensity was converted into ZnODPc concentration by interpolation with a calibration plot. Samples of blood were taken from the sacrificed animals, centrifuged to separate the erythocytes and the serum (50 μl) thus collected was diluted with 2% aqueous SDS (700 μl), added with 1.5 ml of THF and centrifuged for 10 mins at 3000 rpm. The ZnODPc concentration in the supernatant was determined by fluorescence spectroscopy as specified above. Special attention was focussed on the phthalocyanine content in the muscle which is the peritumoural tissue in the animal model exemplified in this study and the skin because of the frequent onset of persistent cutaneous photosensitivity in PDT patients. The determination of ZnODPc accumulation in liver and kidneys can provide useful information on the modality of its elimination from the organism. Analyses were carried out at 3 h intervals after photosensitizer injection and at 24 h which is generally considered to be the usual time interval for PDT treatment.

[6] = ethanolic solution; Valduga et al 1988; cited from earlier work
[7] = Table 3, aerated samples, same system as triplet studies (1% pyridine in toluene), means of no less than four runs, compounds 8 and 9 run once
[8] = irradiation conditions described, in words

## CCCCCCCCCCc1ccc(CCCCCCCCCC)c2c1C1=NC2=Nc2c3c(CCCCCCCCCC)ccc(CCCCCCCCCC)c3c3[n]2[Zn][n]2c(c4c(CCCCCCCCCC)ccc(CCCCCCCCCC)c4c2=NC2=NC(=N3)c3c(CCCCCCCCCC)ccc(CCCCCCCCCC)c32)=N1 [Example 1, 1,4,8,11,15,18,22,25-octakis-decylphthalocyaninato-zinc]
[1]
  Triplet Lifetime: 50 μs
  Triplet Quantum Yield: 0.67
[2]; THF, 701 nm
  molar absorption coefficient: 2.01×10^5 dm^3 mol^-1 cm^-1
[2]; cyclohexane
  absorption maximum: 703 nm
[2]; cyclohexane, 703 nm
  molar absorption coefficient (ε) at the absorption maximum: approximately 2.3×10^5 dm^3 mol^-1 cm^-1
[2]; cyclohexane, excited at 703 nm
  fluorescence emission maximum: 712 nm
[3]; [7]
  Singlet Oxygen Quantum Yield: 0.73
[3]; toluene/pyridine solution
  Singlet Oxygen Quantum Yield: 0.73±0.06
[4]; 2.4 mg/kg, irradiated 24 h post-injection, 600-700 nm, 400 J/cm^2
  tumour growth delay compared with untreated tumour-bearing mice: significant delay in tumour growth
[4]; 6 h after irradiation, FIG. 1
  damage of blood vessels (electron microscopy): less heavily damaged
  damage of tumour cells (electron microscopy): extensive damage of tumour cells
[4]; 24 h after irradiation
  overall appearance of the tumour: deeply haemorrhagic
[4]; 24 h after irradiation, FIG. 2
  tissular damage (electron microscopy): remarkably more extensive at 24 h after irradiation
[4]; in words
  damage of cell nuclei: extensive damage of cell nuclei
  tumour damage upon photoexcitation with red light: sufficient for inducing an efficient tumour damage
[4]; [8]
  damage of blood capillaries: appreciable damage of blood capillaries
  main target of photosensitization: malignant cells appear to be the main target
[5]
  accumulation in kidneys: negligible amounts
  liver concentrations: comparatively low
  presence in cutaneous districts (skin): essentially no phthalocyanine is present
  recovery from the peritumoural tissue: No detectable amount
[5]; iv, 1.2 mg/kg, 3 h
  Recovery, Kidney: 0.066 ± 0.008 μg of dye/g of tissue
  Recovery, Liver: 0.278 ± 0.053 μg of dye/g of tissue
  Recovery, Serum: 0.436 ± 0.324
  Recovery, Tumour: 0.073 μg of dye/g of tissue
[5]; iv, 1.2 mg/kg, 24 h
  Recovery, Kidney: 0.O05 ± 0.002 μg of dye/g of tissue
  Recovery, Liver: 0.673 ± 0.140 μg of dye/g of tissue
  Recovery, Serum: 0.042 ± 0.015
  Recovery, Skin: 0.008 ± 0.001 μg of dye/g of tissue
  Recovery, Tumour: 0.132 ± 0.022 μg of dye/g of tissue

## CCCCCCCCCCc1ccc(CCCCCCCCCC)c2c1C1=NC2=Nc2c3c(CCCCCCCCCC)ccc(CCCCCCCCCC)c3c3[n]2[Zn][n]2c(c4c(CCCCCCCCCO)ccc(CCCCCCCCCO)c4c2=NC2=NC(=N3)c3c(CCCCCCCCCC)ccc(CCCCCCCCCC)c32)=N1 [Example 9, 1,4-Bis (9-Hydroxynonyl)-8,11,15,18,22,25-Hexadecylphthalocyaninato-Zinc]
[1]
  Triplet Quantum Yield: 0.70
[3]; [7]
  Singlet Oxygen Quantum Yield: 0.80

## [Zn+2].c1ccc2c(c1)-c1nc-2nc2[n-]c(nc3nc([n-]c4nc(n1)-c1ccccc1-4)-c1ccccc1-3)c1ccccc21 [Example 10, unsubstituted zinc phthalocyanine, reference compound]
[1]
  Triplet Quantum Yield: 0.45
[6]
  Singlet Oxygen Quantum Yield: approximately 0.4
[3]; [7]
  Singlet Oxygen Quantum Yield: 0.50
